Reference: patent US20230094952A1, “Method for Culturing Hematopoietic Stem Cells” (Sumitomo Pharma Co., Ltd., priority 2019, published 2023)

Tests used:
mouse HoxB5 = test: Confirmation test by gene expression of mouse HoxB5 (qRT-PCR); format: cell-based; settings: for mGAPDH Ct value / mHoxB5 Ct value: day 7 of culture; for Ct value difference: mHoxB5 minus mGAPDH
Description: Cells cultured in the presence of artemether were evaluated by gene expression of mouse HoxB5. Cells were cultured in the same manner as in Example 3, and the cells after culture were treated with a Single Cell to CT qRT-PCR kit (manufactured by Life Technologies) according to the instruction of the kit. The cells treated were washed once with PBS, a cell-lysing solution was then added thereto, and the resultant was subjected to RNA extraction followed by reverse transcription reaction for cDNA synthesis, amplified through Taqman Gene Expression Assay in 14 cycles, and diluted with 1×TE buffer (pH 8.0). Real-time PCR was performed with the following Taqman probes at 95° C. for 3 seconds and at 60° C. for 30 seconds in 40 cycles to amplify the sample (HoxbB5: Mm00657672 (manufactured by Thermo Fisher Scientific), Gapdh: Mm99999915-g1 (manufactured by Thermo Fisher Scientific)). All the thermal cycler operations were analyzed by using a QuantStudio 6 (manufactured by Applied Biosystems) (Table 5).
From Table 5, we were able to confirm, by allowing the compound to act, the expression of the long-term hematopoietic stem cell marker HoxB5 in cells on day 7 of culture under culture conditions such that the mouse HoxB5 Ct value was 30 or less and the ACT value was 16 or less.

[1] = system: mouse long-term hematopoietic stem cells; test: Combination test with UM171 on mouse long-term hematopoietic stem cells; format: cell-based; settings: n=2
Description: The cells after classification were seeded in a 96-well plate. A cell culture medium was prepared by adding Stem Cell Factor (SCF, manufactured by PeproTech, Inc.) and Thrombopoietin (TPO, manufactured by PeproTech, Inc.) to StemSpan SFEM culture medium (manufactured by […] Technologies Inc.) and added in advance to a cell culture 96-well plate (manufactured by BD Biosciences) at 100 μL/well, and the cells sorted with the FACS Aria II cell sorter (BD Biosciences) were then seeded at 10 cells/well.
The test compounds each in the form of 10 mM DMSO solution were diluted with the cell culture medium to a final concentration of 1 μM, and added to the cells seeded after classification through medium exchange to a final volume of 200 μL/well. Thereafter, the cells were cultured in a CO2 incubator under conditions of 37° C. and 5% CO2 for 1 week.
After culture, the cells were stained with the antibodies for the surface markers c-Kit and Sca-1, Ter-119, B220, CD3, CD4, CD8a, Gr-1, and CD11b, and the ratio and post-growth cell count of a KLS fraction (c-Kit^+, Lin^−, Sca-1^+) or an mCherry-positive fraction given with use of a FACS Aria II cell sorter were analyzed by using FlowJo (BD Biosciences). The mCherry-positive fraction is a cell fraction expressing the Hoxb5 gene, and the KLS fraction is a cell fraction being c-Kit-positive, Lin-negative, and Sca-1-positive, and includes hematopoietic stem cells and multipotent progenitor cells as main components.
A DMSO solution of artemether was adjusted with the cell culture medium to three final concentrations (0.1 μM, 1 μM, 10 μM), and a DMSO solution of UM171 was adjusted with the cell culture medium to four final concentrations (0.1 μM, 0.3 μM, 1 μM, 3 μM), and cell culture was performed at n=2 by the same method as in Example 1. The cell culture and evaluation criteria were the same as those in Example 2.

[2] = artemether 0.1 μM + UM171 0.1 μM
[3] = artemether 0.1 μM + UM171 0.3 μM
[4] = artemether 10 μM + UM171 0.1 μM
[5] = artemether 10 μM + UM171 0.3 μM

CO[C@H]1O[C@@H]2O[C@@]3(C)CC[C@H]4[C@H](C)CC[C@@H]([C@H]1C)[C@@]24OO3 [Example 1-30, artemether, reference compound]
mGAPDH Ct value (mouse HoxB5; compound 0.03 μM): 13.12
mHoxB5 Ct value (mouse HoxB5; compound 0.03 μM): 30.72
mGAPDH Ct value (mouse HoxB5; compound 0.1 μM): 13.23
mHoxB5 Ct value (mouse HoxB5; compound 0.1 μM): 30.57
mGAPDH Ct value (mouse HoxB5; compound 0.3 μM): 14.47
mHoxB5 Ct value (mouse HoxB5; compound 0.3 μM): 28.79
mGAPDH Ct value (mouse HoxB5; compound 1 μM): 13.02
mHoxB5 Ct value (mouse HoxB5; compound 1 μM): 31.18
mGAPDH Ct value (mouse HoxB5; compound 3 μM): 13.90
mHoxB5 Ct value (mouse HoxB5; compound 3 μM): 28.99
mGAPDH Ct value (mouse HoxB5; compound 10 μM): 17.68
mHoxB5 Ct value (mouse HoxB5; compound 10 μM): 27.62
Ct value difference (mouse HoxB5; compound 0.03 μM): 17.60
Ct value difference (mouse HoxB5; compound 0.1 μM): 17.34
Ct value difference (mouse HoxB5; compound 0.3 μM): 14.31
Ct value difference (mouse HoxB5; compound 1 μM): 18.16
Ct value difference (mouse HoxB5; compound 3 μM): 15.10
Ct value difference (mouse HoxB5; compound 10 μM): 9.94
KLS-positive rate [1, 2]: 52.0%
Viable cell count [1, 2]: 430.0 cell
mCherry-positive rate [1, 2]: 51.8%
KLS-positive rate [1, 3]: 42.0%
Viable cell count [1, 3]: 257.0 cell
mCherry-positive rate [1, 3]: 78.1%
KLS-positive rate ([1]; artemether 0.1 μM + UM171 1 μM): 93.4%
Viable cell count ([1]; artemether 0.1 μM + UM171 1 μM): 28.5 cell
mCherry-positive rate ([1]; artemether 0.1 μM + UM171 1 μM): 100.0%
KLS-positive rate ([1]; artemether 0.1 μM + UM171 3 μM): 60.6%
Viable cell count ([1]; artemether 0.1 μM + UM171 3 μM): 101.5 cell
mCherry-positive rate ([1]; artemether 0.1 μM + UM171 3 μM): 82.4%
KLS-positive rate ([1]; artemether 1 μM + UM171 0.1 μM): 33.1%
Viable cell count ([1]; artemether 1 μM + UM171 0.1 μM): 269.0 cell
mCherry-positive rate ([1]; artemether 1 μM + UM171 0.1 μM): 96.3%
KLS-positive rate ([1]; artemether 1 μM + UM171 0.3 μM): 48.6%
Viable cell count ([1]; artemether 1 μM + UM171 0.3 μM): 151.0 cell
mCherry-positive rate ([1]; artemether 1 μM + UM171 0.3 μM): 99.1%
KLS-positive rate ([1]; artemether 1 μM + UM171 1 μM): 93.7%
Viable cell count ([1]; artemether 1 μM + UM171 1 μM): 23.0 cell
mCherry-positive rate ([1]; artemether 1 μM + UM171 1 μM): 100.0%
KLS-positive rate ([1]; artemether 1 μM + UM171 3 μM): 67.3%
Viable cell count ([1]; artemether 1 μM + UM171 3 μM): 23.5 cell
mCherry-positive rate ([1]; artemether 1 μM + UM171 3 μM): 100.0%
KLS-positive rate [1, 4]: 56.7%
Viable cell count [1, 4]: 122.0 cell
mCherry-positive rate [1, 4]: 99.6%
KLS-positive rate [1, 5]: 91.1%
Viable cell count [1, 5]: 38.0 cell
mCherry-positive rate [1, 5]: 100.0%
KLS-positive rate ([1]; artemether 10 μM + UM171 1 μM): 95.9%
Viable cell count ([1]; artemether 10 μM + UM171 1 μM): 9.5 cell
mCherry-positive rate ([1]; artemether 10 μM + UM171 1 μM): 100.0%
KLS-positive rate ([1]; artemether 10 μM + UM171 3 μM): 94.7%
Viable cell count ([1]; artemether 10 μM + UM171 3 μM): 19.0 cell
mCherry-positive rate ([1]; artemether 10 μM + UM171 3 μM): 96.9%
